The data set concerns the target T1, CYP1A2 (Homo sapiens, UniProt P05177).
T1 sequence (P05177 whole entry): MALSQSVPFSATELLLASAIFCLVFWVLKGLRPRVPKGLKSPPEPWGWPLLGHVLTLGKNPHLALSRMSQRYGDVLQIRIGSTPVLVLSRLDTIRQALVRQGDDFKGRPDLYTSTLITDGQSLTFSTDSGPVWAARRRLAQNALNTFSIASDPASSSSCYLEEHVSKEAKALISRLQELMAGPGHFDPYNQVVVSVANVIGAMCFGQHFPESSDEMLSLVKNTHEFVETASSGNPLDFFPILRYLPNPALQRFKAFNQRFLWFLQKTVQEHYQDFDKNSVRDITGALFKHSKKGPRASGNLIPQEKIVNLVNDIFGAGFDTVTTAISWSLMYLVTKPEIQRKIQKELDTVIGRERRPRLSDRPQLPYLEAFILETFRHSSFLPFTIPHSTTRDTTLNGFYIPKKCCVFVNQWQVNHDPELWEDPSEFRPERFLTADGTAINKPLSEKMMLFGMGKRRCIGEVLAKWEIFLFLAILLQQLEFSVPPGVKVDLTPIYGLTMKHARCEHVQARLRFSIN
Nature of the data set: Inhibition of CYP1A2 in human liver microsomes at 10 uM incubated for 10 mins in presence of NADPH by LC-MS/MS analysis relative to control. The class given is ADME. In general terms: Liver microsomes are a subcellular fraction often used to study metabolism.

Usually inhibition stands for the change of the read-out against control, counted positive when it falls. Take `COc1cc2nc(-c3ccc(C)o3)cc(NCC3CCN(c4ncc(C(=O)NO)cn4)CC3)c2cc1OC`: the inhibition at 10 min, 10 µM came to 58.8%.

The values above are taken from ChEMBL document CHEMBL4834403, “Design and Synthesis of Novel Epigenetic Inhibitors Targeting Histone Deacetylases, DNA Methyltransferase 1, and Lysine Methyltransferase G9a with In Vivo Efficacy in Multiple Myeloma” (J Med Chem, 2021).
